In patent publication US20150065526A1, “OVERCOMING ACQUIRED RESISTANCE TO CHEMOTHERAPY TREATMENTS THROUGH SUPPRESSION OF STAT3” (EMORY UNIVERSITY, priority 2013, published 2015):

Experiments:
[1] = tested on: HCC827/ER lung cancer xenografts; settings: niclosamide 20 mg/kg/d
Description: (§1) Each group includes 8 mice. Tumor volume was measured once every 2 days. After 32 days, the mice were sacrificed and the tumors were removed and analyzed. Representative tumor pictures were taken. B, active caspase-3 was analyzed in tumor tissues at the end of experiments by IHC staining and quantified as described in Materials and Methods. C, expression levels of pEGFR, pSTAT3, Bcl2, and Bcl-XL from tumor tissues in various treatment groups were analyzed by Western blot analysis.
(§2) The control group was treated with 0.5% DMSO vehicle.

[2] = tested on: PTPMeg2, pSTAT3, Bcl2, Bcl-XL, JAK2, c-Src in HCC827 cells; assay: Western blot of HCC827 cells treated with erlotinib; assay type: cell-based, human
[3] = tested on: Tu212 head and neck cancer xenografts; assay: Tu212 head and neck cancer xenografts in mice; assay type: in vivo; settings: for Xenograft tumor growth, Tu212: erlotinib 40 mg/kg/d, niclosamide 20 mg/kg/d, two weeks
Description: Each group included 8 mice. Tumor volume was measured once every 2 days. After 14 days, the mice were sacrificed and the tumors were removed and analyzed. Representative tumor pictures were taken. B, Active caspase 3 and Ki 67 were analyzed in tumor tissues at the end of experiments by IHC staining and quantified. C, Expression levels of pEGFR, pSTAT3, Bcl2 and Bcl-XL in tumor tissues from various treatment groups were analyzed by Western blot.
First, head and neck cancer xenografts were generated using Tu212 cells.

STAT3 = STAT3 (Homo sapiens, UniProt P40763); settings: cited from earlier work
Sequence of STAT3 (P40763 whole entry): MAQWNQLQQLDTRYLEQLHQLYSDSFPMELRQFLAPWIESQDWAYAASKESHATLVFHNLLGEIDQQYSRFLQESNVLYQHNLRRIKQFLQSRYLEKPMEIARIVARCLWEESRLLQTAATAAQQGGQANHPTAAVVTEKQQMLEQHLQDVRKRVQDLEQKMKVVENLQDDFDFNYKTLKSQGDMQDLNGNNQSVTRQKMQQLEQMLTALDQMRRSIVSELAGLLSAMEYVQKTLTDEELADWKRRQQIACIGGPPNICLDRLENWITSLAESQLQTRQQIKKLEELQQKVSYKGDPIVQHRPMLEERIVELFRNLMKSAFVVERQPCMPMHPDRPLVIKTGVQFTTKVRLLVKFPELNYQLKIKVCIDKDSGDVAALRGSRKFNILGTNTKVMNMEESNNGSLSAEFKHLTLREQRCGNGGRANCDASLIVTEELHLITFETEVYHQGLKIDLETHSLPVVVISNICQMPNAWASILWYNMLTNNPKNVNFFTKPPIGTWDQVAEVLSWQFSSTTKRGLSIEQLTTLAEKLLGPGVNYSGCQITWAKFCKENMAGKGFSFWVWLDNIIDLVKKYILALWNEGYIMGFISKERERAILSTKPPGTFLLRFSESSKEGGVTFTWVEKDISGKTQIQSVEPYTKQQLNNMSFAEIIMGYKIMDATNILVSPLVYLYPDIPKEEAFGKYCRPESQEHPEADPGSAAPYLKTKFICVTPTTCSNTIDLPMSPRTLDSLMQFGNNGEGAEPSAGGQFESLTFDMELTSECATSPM

[4] = tested on: HCC827 lung cancer xenografts; settings: niclosamide 20 mg/kg/d
Description: as §1, §2

[5] = tested on: STAT3 phosphorylation, Bcl2/Bcl-XL in Tu212 and Tu686 cells; assay: Western blot of Tu212 and Tu686 head and neck cancer cells; assay type: cell-based; settings: erlotinib plus increasing concentrations of niclosamide, 48 h

Structure (SMILES) | Tumor volume, HCC827/ER xenografts ([1]; erlotinib 40 mg/kg/d, 32 days) | JAK2 and c-Src phosphorylation [2] | PTPMeg2 expression [2] | STAT3/Bcl2/Bcl-XL pathway status [2] | Xenograft tumor growth, Tu212 [3] | Activation of upstream proteins JAK2 and Src (STAT3) | STAT3 Tyr705 phosphorylation and transcriptional activity (STAT3) | STAT3 phosphorylation, Bcl2 and Bcl-XL in tumor lysates (Western blot), HCC827 [4] | STAT3 phosphorylation, Bcl2 and Bcl-XL in tumor lysates (Western blot), HCC827/ER [1] | Erlotinib-induced STAT3 phosphorylation and Bcl2/Bcl-XL (Western blot) [5] | Erlotinib-stimulated STAT3 phosphorylation, Bcl2 and Bcl-XL in tumor tissue lysates, Tu212 ([3]; three mice in each treatment group)
C#Cc1cccc(Nc2ncnc3cc(OCCOC)c(OCCOC)cc23)c1 [erlotinib, N-(3-ethynylphenyl)-6,7-bis(2-methoxyethoxy)quinazolin-4-amine] | tumor volumes comparable with those in the vehicle-treated control group | inhibited JAK2 and c-Src phosphorylation | downregulates PTPMeg2 | activation of the STAT3/Bcl2/Bcl-XL pathway | modest efficacy | – | – | – | – | – | –
O=C(Nc1ccc([N+](=O)[O-])cc1Cl)c1cc(Cl)ccc1O [niclosamide] | – | – | – | – | modest efficacy | no obvious inhibitory effect | can inhibit Tyr705 site phosphorylation as well as transcriptional activity of STAT3 | blocks STAT3 phosphorylation in association with reduced Bcl2 and Bcl-XL | blocks STAT3 phosphorylation in association with reduced Bcl2 and Bcl-XL | inhibited erlotinib-induced STAT3 phosphorylation and downregulated Bcl2/Bcl-XL in a dose-dependent manner | blocks erlotinib-stimulated STAT3 phosphorylation leading to decreased Bcl2 and Bcl-XL levels
